We go through one molecule from patent publication US8093286B2, “Methods for treatment with bucindolol based on genetic targeting” (The Regents of the University of Colorado, a body corporate, priority 2004, dated 2012).

Assay [1] has as its target T1, β1-Gly389 receptor (Homo sapiens, UniProt P08588).
T1 construct: expressed in transfected cells
The assay is described as follows: 125I-cyanopindolol competition binding in transfected cells. To be noted: 125I-CYP competition, n=3; read-out: affinity for bucindolol (pKi) (converted). The protocol: (§1) Chinese hamster fibroblasts were stably transfected using constructs previously described so as to separately express the human β1-Arg389 or β1-Gly389 receptors. β1AR expression, and affinity for bucindolol, were determined by radioligand binding studies with ^125I-cyanopindolol (125I-CYP), using 1 μM propranolol to define nonspecific binding as described. Whole cell cAMP accumulation studies were carried out by the [^3H]-adenine method using two lines with equivalent expression levels of the two receptors as indicated. Attached cells were exposed to vehicle (basal), 10 μM norepinephrine or 10 uM norepinephrine with the indicated concentrations of bucindolol for 15 min at 37° C.

Assay [2] has as its target T2, β1-Arg389 receptor (Homo sapiens, UniProt P08588, G389R).
T2 construct: expressed in transfected cells
Described as above. Conditions: 125I-CYP competition, n=3; read-out: affinity for bucindolol (pKi) (converted). The procedure:
as §1

The subject of assay [3] is advanced heart failure patients. The experiment in a line: proposed bucindolol vs metoprolol CR/XL trial (Study Design II). In kind it is in vivo, human. An excerpt: In Study Design II (FIG. 28) for an additional study design, patients with symptomatic and advanced heart failure (reinforced by the heart failure hospitalization history over the preceding year; therefore, patients who are Class II at the time of screening are allowed in the trial) and LVEFs≦0.35 (the general description of the BEST Trial population) are initially screened for the absence of the α2c 322-325 DEL polymorphism, in the carrier state (either heterozygous or homozygous). […]
The primary endpoint of the trial is noninferiority against metoprolol CR/XL (TOPROL-XL), using the 95% upper confidence limit (UCL) of the time to mortality plus heart failure hospitalization endpoint hazard ratio that was measured in the MERIT-HF trial (Hjalmarson et al. 2000). […] The 95% upper confidence limit for the hazard ratio (UCL) for bucindolol:metoprolol CR/XL (“noninferiority margin”) has been determined from the formula (Hasselblad et al., 2001) {(UCL bucindolol:metoprolol CR/XL)*(UCL metoprolol CR/XL:placebo)≦1.0}; using the MERIT-HF entire cohort UCL of 0.80 for metoprolol:placebo yields x*0.80≦1.0, or a noninferiority margin x≦1.25. […]

Assay [4] relates to nonfailing human right ventricular trabeculae. The assay is described as follows: contractile response of isolated right ventricular trabeculae from nonfailing human hearts. Conditions: with and without forskolin. The protocol: Nonfailing hearts were obtained from local potential organ donors whose hearts were not transplanted because of physical or ABO blood type incompatibility. Failing hearts were from patients with end-stage heart failure due to ischemic or non-ischemic dilated cardiomyopathies who underwent cardiac transplantation. The demographic characteristics of the hearts are provided in Results. The contractile response of isolated, field stimulated, human trabeculae was assessed as previously described {1755; a-c}. Trabeculae of uniform size (1 to 2×6 to 8 mm) were mounted in 80 ml muscle bath chambers in Tyrode's solution at pH 7.45 bubbled with 95% O2-5% CO2 at 36^0. After equilibration, a tension of 75% of Lmax was applied to each individual trabeculum. Field-stimulation by a 5-ms pulse at 10% above threshold was then applied, and after equilibration full dose-response curves to isoproterenol, bucindolol or xamoterol were performed using the indicated concentrations and application of increasing doses every 5 minutes. In experiments in which forskolin was used to enhance signal transduction {e,f}, 10^−6 M of this adenylyl cyclase activator was applied to the tissue baths 15-20 minutes prior to the performance of dose-response curves, and allowed to achieve stability of tension response. Systolic tension at each dose was calculated as the stimulated tension in mN/mm^2 minus baseline tension. The maximum tension, concentration of isoproterenol that produced 50% of the maximum developed tension (EC50) and curve slope were computed by nonlinear repeated measures analysis of covariance. […] Statistical methods were employed as described in Examples 3 and 4.

Each structure is given as a SMILES string. Structures can show the parent of a compound that is named as a salt.

T1 sequence (P08588 whole entry): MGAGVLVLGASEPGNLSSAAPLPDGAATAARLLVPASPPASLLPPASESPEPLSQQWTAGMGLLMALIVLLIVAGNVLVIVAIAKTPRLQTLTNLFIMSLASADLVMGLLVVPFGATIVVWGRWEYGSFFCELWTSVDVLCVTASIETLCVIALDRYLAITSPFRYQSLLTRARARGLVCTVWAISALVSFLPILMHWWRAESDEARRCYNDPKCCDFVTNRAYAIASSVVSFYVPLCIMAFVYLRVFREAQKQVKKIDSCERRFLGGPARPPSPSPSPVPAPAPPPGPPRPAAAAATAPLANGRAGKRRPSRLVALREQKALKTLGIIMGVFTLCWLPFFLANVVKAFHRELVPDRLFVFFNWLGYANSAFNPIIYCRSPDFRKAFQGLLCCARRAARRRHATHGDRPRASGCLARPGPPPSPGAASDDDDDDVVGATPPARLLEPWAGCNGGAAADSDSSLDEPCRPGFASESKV
T2 sequence (P08588 whole entry G389R): as the sequence (P08588 whole entry) above, with G389R counted along it

With `CC(C)(Cc1c[nH]c2ccccc12)NCC(O)COc1ccccc1C#N` (centres unmarked) [bucindolol, (2-{2-hydroxy-3{{2-(3-indolyl)-1,1-dimethylethyl}amino}propoxy}-benzonitrile hydrochloride)], the Ki in assay [1] and in assay [2] was 0.251 nM in each case. In assay [3] (α2c WT/WT U.S. population, 0.72/0.84), the “expected hazard ratio bucindolol vs. metoprolol CR/XL, mortality plus HF hospitalization” value was determined as 0.86. Also, the “expected hazard ratio bucindolol:metoprolol CR/XL, mortality+HF hospitalizations” value in assay [3] (β1-389 Arg/Arg + α2c wild type vs MERIT U.S. data, 0.61/0.84) is 0.73. Moreover, the “intrinsic sympathomimetic activity (increase in force)” value in assay [4] was “no evidence of ISA”.
